Experimental data: patent publication US11124506B2, “Salts and crystal forms of diaza-benzofluoranthrene compounds” (HARBIN PHARMACEUTICAL GROUP CO., LTD. GENERAL …, priority 2016, dated 2021)

Target: T1, PDE1A (Homo sapiens, UniProt P54750)
T1 construct: purchased SignalChem
Experiment: In vitro detection of phosphodiesterase (PDE), fluorescence polarization detection of AMP/GMP production
Format: biochemical
Details: human enzyme (SignalChem), cAMP or cGMP substrate, Ca2+-calmodulin cofactor; read-out: IC50 values measured by PDE1 detection: PDE1
Experimental: Experimental Example 1: The In Vitro Detection of Phosphodiesterase (PDE)
Principle of the Experiment:
The assay measures PDE1A enzyme activity based on fluorescence polarization detection of AMP/GMP production. The principle of the reaction is to replace the binding of AMP/GMP to its antibody by AlexaFluor 633 labeled AMP/GMP.
Reaction buffer: 10 mM Tris-HCl, pH=7.5, 5 mM magnesium chloride, 0.01% Brij 35, 1 mM DTT, and 1% DMSO;
Enzyme substrate: […] cAMP or cGMP (Ca^2+-calmodulin as a cofactor of PDE1A);
Transcreener® AMP2/GMP2 antibody;
AMP2/GMP2 AlexaFluor 633 marker.
Experimental Procedures and Methods:
1. Human enzyme to be tested (purchased from SignalChem) and the substrate were diluted with a freshly prepared reaction buffer.
2. An enzyme solution (concentration: 3 pM) was added to the wells of a reaction plate.
3. […]
7. The following devices were used for detection: EnVision (PerkinElmer), Cy5FP Ex FP 620, Em S-pol 688/P-pol 688, FP mirror D658fp/D688; fluorescence polarization was detected using Ex/Em 620/688.
Enzymatic activity corresponding to the FP signal was retrieved in an AMP/GMP standard curve using DMSO as a control in an Excel table. […] An analysis was performed using GraphPad Prism and IC50 values were calculated.

IC50: 1 to 20 µM
Structure (SMILES): CC[C@@]12C=C(c3nc(C)no3)n3c4c(c5ccccc53)CCN(CCC1)[C@H]42 [Compound 1]
